Tests used:
Assay type in all cases: in vivo, human
[1] = test system: patients with symptomatic obstructive HCM (oHCM) receiving disopyramide; assay: Phase 2 trial in oHCM, Cohort 3: CK-274 in combination with disopyramide
From the text: Cohort 3 included patients receiving disopyramide.
Body weight was ≥45 kg at screening; 4. […] Adequate acoustic windows for echocardiography; 6. Had LVOT-G during screening as follows for Cohorts 1 and 2: (a) resting gradient≥50 mmHg; or (b) resting gradient≥30 mmHg and <50 mmHg with post-Valsalva LVOT-G≥50 mmHg; or as follows for Cohort 3: persistent resting LVOT obstruction (≥30 mmHg) and provoked LVOT obstruction (≥50 mmHg); 7. Left ventricular ejection fraction (LVEF)≥60% at screening; 8. […] Taking stable doses of disopyramide for >4 weeks prior to screening (Cohort 3 only).
Patients up-titrated to Dose 2 if either of the following conditions were met on echocardiography: (1) resting LVOT-G≥30 mmHg and the biplane LVEF≥50%; or (2) resting LVOT-G<30 mmHg, post-Valsalva LVOT-G≥50 mmHg, and the biplane LVEF≥50%. Otherwise, the patient remains on Dose 1. If LVEF is <50% at Week 2, the patient was down-titrated to placebo.
Overall, treatment duration for each patient in the study was 10 weeks with an echocardiogram conducted 2 weeks after the last dose. Efficacy endpoints included resting and provoked LVOT gradients, NYHA class, and NT-proBNP.

[2] = Phase 1 plasma pharmacokinetics, food-effect cohort; conditions: single 10 mg
Experimental: Food-effect cohort. […] Participants were randomized in a 1:1 ratio to 1 of 2 sequences: fasted/fed or fed/fasted.
Pharmacokinetic analyses. For all study groups, blood samples for PK assessment were obtained pre-dose, up to 12 times daily on day 1, and then at regular intervals throughout the study. Blood samples were collected according to the following schedule: SAD Cohorts: Day 1: pre-dose and 0.25, 0.5, 1, 1.5, 2, 2.5, 3, 4, 6, 8, 12, 16, 24, 36, 48, 72, 96, and 216 h post dose. […] CYPD6-PM Cohort: Day 1: pre-dose and 0.25, 0.5, 1, 1.5, 2, 2.5, 3, 4, 6, 8, 12, 16, 24, 36, 48, 72, 96, 216, 312, and 552 h post dose. Food-Effect Cohort: Day 1: pre-dose and 0.25, 0.5, 1, 1.5, 2, 2.5, 3, 4, 6, 8, 12, 16, 24, 36, 48, 72, 96, 144, and 216 h post dose. Standard non-compartmental methods were used to calculate PK parameters using Phoenix® WinNonlin® Version 7.0; actual sample collection times were utilized.

[3] = test system: healthy adults; assay: Phase 1 ECG (QTcF), vital signs and clinical laboratory safety
Experimental: Safety and tolerability. Safety was assessed by the incidence of adverse events (AEs) and by incidence of reduced LVEF. Treatment-emergent AEs (TEAE) were defined as AEs that began or increased after study drug administration. All AEs were coded using the Medical Dictionary for Regulatory Activities version 21.1 and graded using the National Cancer Institute Common Terminology Criteria for AEs (version 4.03) 5-point severity scale. Each AE was judged as either related or unrelated to the study drug by the treating investigator. Clinical laboratory tests were obtained at regular intervals in all cohorts.
For safety monitoring, participants in all cohorts had periodic echocardiograms, which were assessed by a cardiologist. In the SAD and MAD cohorts, echocardiograms were also reviewed by an echocardiography core laboratory for PD assessments, as described below. In addition, participants in all cohorts were monitored with continuous 12-lead ECG recording using Holter monitors. For safety monitoring, a single 12-lead ECG was extracted at screening, pre-dose, and periodically throughout follow-up, and interpreted by the investigator. In the SAD, MAD, and CYP2D6-PM cohorts, cardiodynamic ECGs (triplicate 10-second, 12-lead ECG recordings) were obtained prior to the corresponding PK blood and ECG intervals quantitated by qualified readers.

[4] = test system: patients with symptomatic oHCM; assay: Open-label extension trial in oHCM: LVOT-G, LVEF, NYHA class, KCCQ
From the text: An open-label extension clinical trial of CK-274 in patients with symptomatic oHCM was initiated.
Patients who completed the study as described in Example 2 and had not developed atrial fibrillation were eligible to enroll in the study. Echo-guided dose titration based on site reads was managed by the investigator and could occur at any time during the trial, as described below.
Each patient received Dose 1 of CK-274 once daily for 2 weeks. […] Patients were up-titrated to Dose 2 if either of the following conditions were met on echocardiography: (1) resting LVOT-G≥30 mmHg and the biplane LVEF≥50%; or (2) resting LVOT-G<30 mmHg, post-Valsalva LVOT-G≥50 mmHg, and the biplane LVEF≥50%. Otherwise, the patient remained on 5 mg of CK-274. If LVEF was […], treatment was discontinued. If LVEF was <40%, treatment is interrupted.
Ambulatory cardiac monitoring is performed on weeks 48, 96, 144, 192 and 240. Cardiac magnetic resonance is monitored at weeks 48, 144 and 240. (See FIG. 26).
Change in KCCQ scores from baseline, including OSS=overall summary score, CSS=clinical summary score, TSS=total symptom score, PLS=physical limitation score, SLS=social limitation score, QoL=quality of life, were determined. Patients were categorized with worsened (≤−5 points), unchanged (−5 to <5 points), small improvement (5 to <10 points), moderate to large improvement (10 to <20 points), and large to very large improvement (≥20 points) relative to baseline.

**Q.** For `CCc1nc(-c2ccc3c(c2)CC[C@H]3NC(=O)c2cnn(C)c2)no1` [aficamten, (R)—N-(5-(5-ethyl-1,2,4-oxadiazol-3-yl)-2,3-dihydro-1H-inden-1-yl)-1-methyl-1H-pyrazole-4-carboxamide], which “Moderate adverse events recorded” value ([1]; Cohort 3) is on record?
**A.** Its value is “six”.

**Q.** And the “New York Heart Association functional class” value ([1]; Cohort 3)?
**A.** Its value is “improved in the majority of patients”.

**Q.** What about the “Patients whose LVEF fell below the safety threshold of 50%” value ([1]; Cohort 3) of the same compound?
**A.** Its value is “no patients”.

**Q.** What about the “Serious adverse events attributed to treatment” value ([1]; Cohort 3) of the same compound?
**A.** Its value is “no serious adverse events attributed to treatment”.

**Q.** What about the “Average resting and post-Valsalva LVOT-G” value ([1]; Cohort 3, 5, 10, 15 mg, 10 weeks) of the same compound?
**A.** Its value is “substantial reductions”.

**Q.** What about the “Patients with AEs related to study drug (per investigator)” value ([1]; Cohort 3, 13 patients) of the same compound?
**A.** Its value is 2 (15.4) N (%).

**Q.** What about the “Patients with TEAEs leading to drug interruption or termination” value ([1]; Cohort 3, 13 patients) of the same compound?
**A.** Its value is 0 N (%).

**Q.** And the “Patients with TESAEs” value ([1]; Cohort 3, 13 patients)?
**A.** Its value is 0 N (%).

**Q.** And the “Patients with at least one TEAE” value ([1]; Cohort 3, 13 patients)?
**A.** Its value is 9 (69) N (%).

**Q.** And the “Patients with fatal TEAEs” value ([1]; Cohort 3, 13 patients)?
**A.** Its value is 0 N (%).

**Q.** And the “TEAE of LVEF <50% (Core Lab)” value ([1]; Cohort 3, 13 patients)?
**A.** The value was 0 N (%).

**Q.** What about the “Adverse events of asymptomatic atrial fibrillation” value ([1]; Cohort 3, patient with known prior history) of the same compound?
**A.** Its value is “One”.

**Q.** And the “Effect on LVOT-G compared with Cohort 1 patients (same CK-274 dose)” value ([1]; Cohort 3, patients treated with disopyramide)?
**A.** Its value is “mostly attenuated”.

**Q.** And the “CL/F, mean ± SD” value ([2]; Fasted, n = 4)?
**A.** Its value is 2.8 ± 0.6 L/h.

**Q.** What about the “CL/F, mean ± SD” value ([2]; Fed, n = 7) of the same compound?
**A.** Its value is 3.1 ± 0.9 L/h.

**Q.** What about the “Increase in Cmax when taken with food” value ([2]; fed vs fasted) of the same compound?
**A.** Its value is “approximately 30%”.

**Q.** What about the “Serum chemistry, hematology, urinalysis findings” value ([3]; all Phase 1 cohorts) of the same compound?
**A.** Its value is “No clinically significant serum chemistry, hematology, or urinalysis findings”.

**Q.** And the “Increases in QTcF interval” value ([3]; all cohorts (exception: 1 placebo participant))?
**A.** Its value is at most 30 ms.

**Q.** What about the “QTcF at baseline or any assessment during the dosing interval” value ([3]; all cohorts, exception of 2 individuals with baseline QTcF ≥440 ms) of the same compound?
**A.** The value was at most 450 ms.

**Q.** And the “QT effect in cardiodynamic assessments” value ([3]; single or multiple doses)?
**A.** Its value is “no evidence of a positive QT effect”.

**Q.** What about the “Participants with very large clinical improvements (≥20 points) in KCCQ” value ([4]; Week 24) of the same compound?
**A.** Its value is 40.0%.

**Q.** What about the “LVOT gradients (resting and Valsalva) over time” value ([4]; Weeks 2-24, site reads) of the same compound?
**A.** The value was “significant and sustained reduction”.

**Q.** And the “Patients with worsening in NYHA class from baseline” value ([4]; open-label extension)?
**A.** The value was “No patients”.

**Q.** And the LVEF over time ([4]; through Week 24)?
**A.** The LVEF over time was “minimal and stable reductions”.

From patent US20250177357A1, “METHODS FOR TREATING HYPERTROPHIC CARDIOMYOPATHY” (priority 2021, published 2025)
